Measurements published in patent US6440440B1, “Biocidal benzylbiphenyl derivatives” (priority 1998, dated 2002).
Counter-ions that a name gives are not always drawn.

Assays:
Format in all cases: cell-based
[1] = system: Escherichia coli; assay: Primary bacteria screening; parameters: key: score: 3 = complete inhibition of growth, 2 = growth partially controlled; conditions: test compound concentration 500 μMol in tryptose broth agar, 27° C.
Protocol: (§1) The stock solutions with the test compounds were pipetted into multiwell plates and mixed with warm tryptose broth agar (2.6%) in order to reach a test compound concentration of 500 μMol. The medium was allowed to cool and subsequently inoculated with the bacteria. Wells were placed in an incubator at 27° C. and a relative humidity of 70%. After sufficient growth of the untreated cultures, the test was evaluated.
(§2) 3: complete inhibition of bacterial growth
(§3) 2: bacterial growth partially controlled

[2] = system: Pseudomonas aeruginosa; assay: Primary bacteria screening; parameters: key: score: 3 = complete inhibition of growth, 2 = growth partially controlled; conditions: test compound concentration 500 μMol in tryptose broth agar, 27° C.
Protocol: as §1, §2, §3

[3] = system: Debaryomyces hansenii; assay: Screening against yeasts; parameters: key: 3 = complete inhibition of growth, 2 = growth partially controlled; conditions: test compound concentration 500 μM
Protocol: as §1, §2, §3
(§4) A number of compounds of formula (I) were also tested in a screening against certain The test conditions are the same as described in biological example C.1. The concentration of the test compound was also 500 μmol, and the scoring system used was also the same.
Debaryomyces hansenii (19)

[4] = system: Rhodotorula rubra; assay: Screening against yeasts; parameters: key: 3 = complete inhibition of growth, 2 = growth partially controlled; conditions: test compound concentration 500 μmol
Protocol: as §1, §2, §3, §4

[5] = system: Sporobolomyces roseus; assay: Screening against yeasts; parameters: key: 3 = complete inhibition of growth, 2 = growth partially controlled; conditions: test compound concentration 500 μmol
Protocol: as §1, §2, §3, §4
Sporobolomyces roseus (21)

SMILES | E. coli (growth inhibition score) [1] | P. aeruginosa (growth inhibition score) [2] | Test yeast (19) Debaryomyces hansenii (score) [3] | Test yeast (20) Rhodotorula rubra (score) [4] | Test yeast (21) Sporobolomyces roseus (score) [5]
Cl.Cl.Fc1ccc(-c2ccc(C(c3ccccc3)C3CCN(C4CCNCC4)CC3)cc2)cc1.O (racemic) [Co. No. 7, (±)-4-[[4′-fluoro(1,1′-biphenyl)-4-yl]phenylmethyl](1,4′-bipiperidine)dihydro-chloride.monohydrate] | 3 | 3 | 3 | 2 | 3
CNCCCN(C)CCCN(C)C(c1ccccc1)c1ccc(-c2ccccc2)cc1 (racemic) [Co. No. 52, (±)-N-[[(1,1′-biphenyl)4-yl]phenylmethyl]-N,N′-dimethyl-N′-[3-(methylamino)propyl]-1,3-propanediamine trihydrochloride] | 3 | 1 | 3 | 3 | 3
Cl.Cl.c1ccc(-c2ccc(C(c3ccccc3)C3CCN(C4CCNCC4)CC3)cc2)cc1 (single isomer, unassigned) [compound 22] | 3 | 1 | 3 | 1 | 3
c1ccc(-c2ccc(C(c3ccccc3)C3CCN(C4CCNCC4)CC3)cc2)cc1 (single isomer, unassigned) [compound 23] | 1 | 3 | 3 | 3 | 3
Cl.Cl.Fc1ccc(-c2ccc(C(c3ccc(F)cc3)C3CCN(C4CCNCC4)CC3)cc2)cc1 (centres unmarked) [compound 6] | 3 | 3 | 3 | 3 | 3
Cc1ccc(C(c2ccc(-c3ccc(F)cc3)cc2)C2CCN(C3CCNCC3)CC2)cc1.Cl.Cl (centres unmarked) [compound 9] | 3 | 2 | 3 | 3 | 3
Cl.Fc1ccc(C(c2ccc(-c3ccccc3)cc2)C2CCN(C3CCNCC3)CC2)cc1 (centres unmarked) [compound 11] | 3 | 3 | 3 | 1 | 3
Br.Br.COc1ccc(C(c2ccc(-c3ccccc3)cc2)C2CCN(C3CCNCC3)CC2)cc1 (centres unmarked) [compound 12] | 3 | 2 | 3 | 2 | 3
Cl.Cl.Oc1ccc(C(c2ccc(-c3ccccc3)cc2)C2CCN(C3CCNCC3)CC2)cc1 (centres unmarked) [compound 13] | 3 | 3 | 3 | 1 | 3
NCCCN1CCC(N2CCC(C(c3ccccc3)c3ccc(-c4ccccc4)cc3)CC2)CC1 (centres unmarked) [compound 16] | 3 | 3 | 3 | 3 | 3
CCN1CCC(N2CCC(C(c3ccccc3)c3ccc(-c4ccccc4)cc3)CC2)CC1.Cl.Cl (centres unmarked) [compound 18] | 1 | 2 | 3 | 1 | 3
NCCC1CCN(CC=C(c2ccccc2)c2ccc(-c3ccccc3)cc2)CC1.O=C(O)C(=O)O.O=C(O)C(=O)O [compound 25] | 3 | 1 | 3 | 1 | 3
NCC1CCN(CC=C(c2ccccc2)c2ccc(-c3ccccc3)cc2)CC1.O=C(O)C(=O)O.O=C(O)C(=O)O [compound 26] | 3 | 1 | 3 | 2 | 3
NC1CCN(CC=C(c2ccccc2)c2ccc(-c3ccccc3)cc2)CC1.O=C(O)C(=O)O.O=C(O)C(=O)O [compound 27] | 3 | 1 | 3 | 1 | 3
Cl.Cl.NCCC1CCN(CCC(c2ccccc2)c2ccc(-c3ccccc3)cc2)CC1 (centres unmarked) [compound 29] | 3 | 1 | 3 | 3 | 3
Cl.Cl.NCC1CCN(CCC(c2ccccc2)c2ccc(-c3ccccc3)cc2)CC1 (centres unmarked) [compound 30] | 3 | 1 | 3 | 1 | 3
Cl.Cl.NC1CCN(CCC(c2ccccc2)c2ccc(-c3ccccc3)cc2)CC1 (centres unmarked) [compound 31] | 3 | 1 | 3 | 1 | 3
CN(C)CC1CCN(CCC(c2ccccc2)c2ccc(-c3ccccc3)cc2)CC1 (centres unmarked) [compound 33] | 1 | 1 | 3 | 3 | 3
CN(C)CCNCCC(c1ccccc1)c1ccc(-c2ccccc2)cc1 (centres unmarked) [compound 39] | 3 | 1 | 3 | 1 | 3
CN(C)CCCN1CCC(C(c2ccccc2)c2ccc(-c3ccccc3)cc2)CC1.Cl.Cl (centres unmarked) [compound 43] | 1 | 2 | 3 | 2 | 3
Cl.Cl.Cl.c1ccc(-c2ccc(C(c3ccccc3)N3CCN(C4CCNCC4)CC3)cc2)cc1 (centres unmarked) [compound 46] | 1 | 3 | 3 | 1 | 3
c1ccc(-c2ccc(C(NC3CCN(C4CCNCC4)CC3)c3ccccc3)cc2)cc1 (centres unmarked) [compound 47] | 3 | 1 | 3 | 3 | 3
